Experimental data reported in PubChem BioAssay (NCI).
Where “and” joins values, the source holds several entries; their conditions need not be identical. Identical values can stand only once.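 The compound was tested at five concentrations on cells cultured in 96-well plates, with a 48-hour exposure period. The concentration for 50% growth inhibition is given as GI50. The concentration for full growth arrest is given as TGI.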

Test system: A549 NSCLC
Assay: DTP human tumour cell line panel, 48 h

Compound	GI50 [µM]	TGI
CN1CCN(c2ccc(Nc3cc(-c4cccc(-n5ccc6cc(C7CC7)cc(F)c6c5=O)c4CO)cn(C)c3=O)nc2)CC1	5.27	19.2 µM
COc1ccc2nc3ccccc3c(NCc3ccc(F)cc3)c2c1	1.99	9.89 µM
CN(C)C1CCN(C(=O)c2ccc(NC(=O)Nc3ccc(-c4nc(N5CCOCC5)c5cccn5n4)cc3)cc2)CC1	0.0649	12.6 µM
COc1ccc(OCC(=O)O)c2c1CCCC2=O	–	> 100 µM
COc1cc(N=Nc2ccc(O)c3ncccc23)c2ncccc2c1	8.04	> 100 µM
Cc1nc(Nc2ccc(Cl)cc2)sc1C(=O)NNC(=S)NN	–	39.6 µM
CCn1c(O)c(/C=N/NC(=O)C(C)c2ccc(CC(C)C)cc2)sc1=S (stereo not drawn)	0.472	> 54.4 µM
C[C@@H]1C[C@@H]([C@@H](CC2CC(=O)NC(=O)C2)OC(=O)CC(=O)c2ccccc2)C(=O)[C@@H](C)C1	0.567	> 100 µM
N=c1c2c(-c3ccccc3)c(-c3ccccc3)n(Cc3ccccc3)c2ncn1C1CCC(O)CC1 (stereo not drawn)	0.103	12.9 µM
O=c1c(F)cn(Cc2ccc(C34CC5CC(CC(C5)C3)C4)c(O)c2)c(=O)n1Cc1ccc(C23CC4CC(CC(C4)C2)C3)c(O)c1	4.2	> 100 µM
CCOC(=O)Nc1cc2c(c(N)n1)N=C(c1ccccc1)CO2	0.167	13.8 µM
CC1CC2CCCC(O)=C2C(=O)O1 (stereo not drawn)	–	> 100 µM
CC(C)(/C=C(\C#N)C(=O)N1CCC[C@@H](n2nc(-c3ccc(Oc4ccccc4)cc3F)c3c(N)ncnc32)C1)N1CCN(C2COC2)CC1	6.57	25.1 µM
Cc1ccc(C)c(NC(=O)c2cccc([N+](=O)[O-])c2O)c1	–	> 100 µM
O=c1oc2ccc(-c3ccc(F)cc3F)cc2c(=O)n1-c1cccc(C(F)(F)F)c1	1.75	34.8 µM
COC(=O)c1ccc2c(c1)C(=O)c1c-2n(CCCN=[N+]=[N-])c(=O)c2cc(OC)c(OC)cc12	> 100	> 100 µM
O=C(Cc1ccc(F)c(Cl)c1)Nc1cc(C2(C(F)(F)F)CC2)nn1CC1CCCCC1	4.6	> 15 µM
N#Cc1nn(-c2cc(=O)[nH]c3ccc(Cl)cc23)c(N)c1C#N	> 100	> 100 µM
On1c(-c2ccccc2)c(-c2ccccc2N2CCCC2)c2ccccc21	–	> 100 µM
CCN1CCN(c2cc(C)c3cc(NC(=O)c4ccc(OC)c(OC)c4)ccc3n2)CC1	11.1	> 100 µM
CC(C)(C)c1cc(C(P(=O)(O)O)P(=O)(O)O)cc(C(C)(C)C)c1O	–	> 100 µM
COC(=O)c1c2c(c(C)[n+]([O-])c1C)C(=O)C=C(NCc1ccc(F)cc1)C2=O	0.794	3.15 µM
CC(C)C1=Cc2ccc3c(c2C(=O)C1=O)CCCC3(C)C	–	34.8 µM
CSc1nc(SC)c2c(C#N)[nH]nc2n1	–	> 100 µM
CCCC(=O)Nc1cn(COC)c(C(=O)N2C[C@@H]3C[C@]34C2=CC(=O)c2[nH]cc(C)c24)n1	–	50 µM and 30 µM
CC(=O)Nc1ccc(-c2csc(Nc3cccc(-c4csc(C)n4)c3)n2)cc1	1.21	18.9 µM
CNCCOC(=O)/C=C1\CC[C@H]2[C@@H]([C@@H](O)C(=O)[C@@H]3[C@]2(C)CC[C@H](O)[C@]3(C)C(=O)OC)[C@H]1C	0.165	0.314 µM

Test system: CCRF-CEM leukemia
Assay: DTP human tumour cell line panel, 48 h

Compound	GI50 [µM]	TGI [µM]
CN1CCN(c2ccc(Nc3cc(-c4cccc(-n5ccc6cc(C7CC7)cc(F)c6c5=O)c4CO)cn(C)c3=O)nc2)CC1	2.19	7.73
COc1ccc2nc3ccccc3c(NCc3ccc(F)cc3)c2c1	2.06	23.4
CN(C)C1CCN(C(=O)c2ccc(NC(=O)Nc3ccc(-c4nc(N5CCOCC5)c5cccn5n4)cc3)cc2)CC1	0.0483	4.69
COc1ccc(OCC(=O)O)c2c1CCCC2=O	–	> 100
COc1cc(N=Nc2ccc(O)c3ncccc23)c2ncccc2c1	0.459	> 100
Cc1nc(Nc2ccc(Cl)cc2)sc1C(=O)NNC(=S)NN	–	88.5
CCn1c(O)c(/C=N/NC(=O)C(C)c2ccc(CC(C)C)cc2)sc1=S (stereo not drawn)	0.23	> 100
C[C@@H]1C[C@@H]([C@@H](CC2CC(=O)NC(=O)C2)OC(=O)CC(=O)c2ccccc2)C(=O)[C@@H](C)C1	0.466	> 85.5
N=c1c2c(-c3ccccc3)c(-c3ccccc3)n(Cc3ccccc3)c2ncn1C1CCC(O)CC1 (stereo not drawn)	0.321	9.25
O=c1c(F)cn(Cc2ccc(C34CC5CC(CC(C5)C3)C4)c(O)c2)c(=O)n1Cc1ccc(C23CC4CC(CC(C4)C2)C3)c(O)c1	9.46	> 100
CCOC(=O)Nc1cc2c(c(N)n1)N=C(c1ccccc1)CO2	0.0653	4.42
CC1CC2CCCC(O)=C2C(=O)O1 (stereo not drawn)	–	> 100
CC(C)(/C=C(\C#N)C(=O)N1CCC[C@@H](n2nc(-c3ccc(Oc4ccccc4)cc3F)c3c(N)ncnc32)C1)N1CCN(C2COC2)CC1	5.69	> 100
Cc1ccc(C)c(NC(=O)c2cccc([N+](=O)[O-])c2O)c1	–	> 100
O=c1oc2ccc(-c3ccc(F)cc3F)cc2c(=O)n1-c1cccc(C(F)(F)F)c1	2.42	7.85
COC(=O)c1ccc2c(c1)C(=O)c1c-2n(CCCN=[N+]=[N-])c(=O)c2cc(OC)c(OC)cc12	> 100	> 100
O=C(Cc1ccc(F)c(Cl)c1)Nc1cc(C2(C(F)(F)F)CC2)nn1CC1CCCCC1	4.72	> 15
N#Cc1nn(-c2cc(=O)[nH]c3ccc(Cl)cc23)c(N)c1C#N	> 100	> 100
On1c(-c2ccccc2)c(-c2ccccc2N2CCCC2)c2ccccc21	–	> 100
CCN1CCN(c2cc(C)c3cc(NC(=O)c4ccc(OC)c(OC)c4)ccc3n2)CC1	> 43.1	> 100
CC(C)(C)c1cc(C(P(=O)(O)O)P(=O)(O)O)cc(C(C)(C)C)c1O	–	> 100
COC(=O)c1c2c(c(C)[n+]([O-])c1C)C(=O)C=C(NCc1ccc(F)cc1)C2=O	0.5	6
CC(C)C1=Cc2ccc3c(c2C(=O)C1=O)CCCC3(C)C	–	> 100
CSc1nc(SC)c2c(C#N)[nH]nc2n1	–	> 100
CCCC(=O)Nc1cn(COC)c(C(=O)N2C[C@@H]3C[C@]34C2=CC(=O)c2[nH]cc(C)c24)n1	1.96	–
CC(=O)Nc1ccc(-c2csc(Nc3cccc(-c4csc(C)n4)c3)n2)cc1	> 50	> 50
CNCCOC(=O)/C=C1\CC[C@H]2[C@@H]([C@@H](O)C(=O)[C@@H]3[C@]2(C)CC[C@H](O)[C@]3(C)C(=O)OC)[C@H]1C	0.291	1.09

Test system: HCC-2998 colon
Assay: DTP human tumour cell line panel, 48 h

Compound	GI50 [µM]	TGI [µM]
CN1CCN(c2ccc(Nc3cc(-c4cccc(-n5ccc6cc(C7CC7)cc(F)c6c5=O)c4CO)cn(C)c3=O)nc2)CC1	10.4	35.8
COc1ccc2nc3ccccc3c(NCc3ccc(F)cc3)c2c1	1	2.1
CN(C)C1CCN(C(=O)c2ccc(NC(=O)Nc3ccc(-c4nc(N5CCOCC5)c5cccn5n4)cc3)cc2)CC1	0.043	5.86
COc1ccc(OCC(=O)O)c2c1CCCC2=O	–	> 100
COc1cc(N=Nc2ccc(O)c3ncccc23)c2ncccc2c1	3.65	> 100
Cc1nc(Nc2ccc(Cl)cc2)sc1C(=O)NNC(=S)NN	–	28.8
CCn1c(O)c(/C=N/NC(=O)C(C)c2ccc(CC(C)C)cc2)sc1=S (stereo not drawn)	0.839	13.7
C[C@@H]1C[C@@H]([C@@H](CC2CC(=O)NC(=O)C2)OC(=O)CC(=O)c2ccccc2)C(=O)[C@@H](C)C1	0.373	> 26.5
N=c1c2c(-c3ccccc3)c(-c3ccccc3)n(Cc3ccccc3)c2ncn1C1CCC(O)CC1 (stereo not drawn)	1.06	5.03
O=c1c(F)cn(Cc2ccc(C34CC5CC(CC(C5)C3)C4)c(O)c2)c(=O)n1Cc1ccc(C23CC4CC(CC(C4)C2)C3)c(O)c1	17.8	33.2
CCOC(=O)Nc1cc2c(c(N)n1)N=C(c1ccccc1)CO2	0.414	8.96
CC1CC2CCCC(O)=C2C(=O)O1 (stereo not drawn)	–	> 100
CC(C)(/C=C(\C#N)C(=O)N1CCC[C@@H](n2nc(-c3ccc(Oc4ccccc4)cc3F)c3c(N)ncnc32)C1)N1CCN(C2COC2)CC1	15.4	31.5
